Assay results from US12338256B2, “Aza-tetracyclic oxazepine compounds and uses thereof” (Genentech, Inc., priority 2022, dated 2025).
Read-outs that look alike come from different tables or passages of the source.

Experiments:
[1] = biological target: KRAS G12D (Homo sapiens, UniProt P01116, G12D); assay: KRAS G12D LoEnz Biochemical Assay, BODIPY-GDP Exchange TR-FRET (Example 500); conditions: read-out: KRas (G12D) GDP HTRF IC50
Description: Example 500: KRAS G12D LoEnz Biochemical Assay, BODIPY-GDP Exchange TR-FRET. Biochemical compound potencies are assessed by evaluating inhibition of SOS1-mediated nucleotide exchange in KRAS G12D. In this assay, the SOS1-promoted exchange of fluorescently-labeled GDP (BOPIDY-GDP) is monitored by time-resolved fluorescence resonance energy transfer (TR-FRET). Compounds solubilized in DMSO are dispensed as concentration series into 384-well white assay plates. A preformed complex of biotin-tagged recombinant human KRAS (0.06 nM mutant G12D) and 0.06 nM terbium-labeled streptavidin (CisBIO) prepared in 10 uL/well assay buffer (20 mM HEPES, pH 7.5, 50 mM NaCl, 10 mM MgCl2, 0.01% Tween-20 and 1 mM dithiothreitol) is added and allowed to incubate for 10-minutes at room temperature. The reaction is initiated with the addition of 5 uL 300 nM recombinant human SOS1 and 300 nM BODIPY-GDP in assay buffer. After a 120-minute incubation, the fluorescence is measured with excitation at 337 nm and emission at 490 and 520 nm. The TR-FRET ratio is determined as the fluorescence at 520 nm divided by the fluorescence at 490 nm multiplied by 10,000. The results are normalized to percent inhibition based on control samples: DMSO (0% inhibition) and control compound at a concentration that inhibits completely (100% inhibition). The normalized TR-FRET results are plotted against compound concentration, and the data are fit to a 4-parameter Hill equation to determine the IC50 values.

[2] = tested on: AsPC-1 (homozygous mutant KRAS G12D human pancreatic cell line); assay: KRAS 3D-Cell Proliferation Assay, AsPC-1 (Example 503); assay type: cell-based; conditions: Homo sapiens, ASPC1, 168 h, AsPC-1 3D culture, 7 days, CellTiter-Glo 3D; read-out: Prolif AsPC-1 3D ATP IC50
Summary of the method: (§1)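 Luminescent ATP readout (CellTiter-Glo 3D, with mechanical mixing) measures growth of cells cultured in 3D after a 7-day compound exposure at 37° C. Percent inhibition is referenced to vehicle (DMSO) and 1 μM staurosporine controls, and IC50 comes from a four-parameter Hill fit.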

[3] = tested on: PC-9 (KRAS wild type human lung adenocarcinoma cell line); assay: KRAS 3D-Cell Proliferation Assay, PC-9 (Example 503); assay type: cell-based; conditions: 168 h, PC-9 3D culture, 7 days, CellTiter-Glo 3D, read-out: Prolif PC9 3D ATP IC50
Summary of the method: as §1

[4] = tested on: H1975 (KRAS wild type human lung adenocarcinoma cell line); assay: KRAS 3D-Cell Proliferation Assay, H1975 (Example 503); assay type: cell-based; conditions: Homo sapiens, NCI-H1975, 168 h, H1975 3D culture, 7 days, CellTiter-Glo 3D; read-out: Prolif H1975 3D ATP IC50
Summary of the method: as §1

[5] = tested on: HPAC (homozygous mutant KRAS G12D human pancreatic cell line); assay: KRAS 3D-Cell Proliferation Assay, HPAC (Example 503); assay type: cell-based; conditions: Homo sapiens, HPAC, 168 h, HPAC 3D culture, 7 days, CellTiter-Glo 3D; read-out: Prolif HPAC 3D ATP IC50
Summary of the method: as §1

[6] = SOS1-mediated BODIPY-GDP exchange TR-FRET

Chain of KRAS G12D (P01116 1-188 isoform P01116-2 G12D): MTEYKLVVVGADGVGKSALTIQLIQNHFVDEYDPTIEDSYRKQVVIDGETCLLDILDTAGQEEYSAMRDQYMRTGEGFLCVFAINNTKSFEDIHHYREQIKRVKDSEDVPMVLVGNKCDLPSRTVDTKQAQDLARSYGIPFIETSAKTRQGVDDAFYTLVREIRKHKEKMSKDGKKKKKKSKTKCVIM

Compound	IC50 [1, 6]	IC50 [2]	IC50 [3]	IC50 ([1]; BODIPY-GDP exchange)	IC50 [4]	IC50 [5]
Cc1nc(N)cc(-c2nc3c4c(nc(OCC5(CN6CC7COCC(C6)C7(F)F)CC5)nc4c2F)N2C[C@H]4CC[C@H](N4)[C@H]2[C@H](C)O3)c1C(F)(F)F [Compound 266, 4-((5S,5aS,6S,9R)-12-((1-((9,9-difluoro-3-oxa-7-azabicyclo[3.3.1]nonan-7-yl)methyl)cyclopropyl)methoxy)-1-fluoro-5-methyl-5a,6,7,8,9,10-hexahydro-5H-4-oxa-3,10a,11,13,14-pentaaza-6,9-methanonaphtho[1,8-ab]heptalene-2-yl)-6-methyl-5-(trifluoromethyl)pyridin-2-amine]	3.05 nM	–	–	–	–	–
C[C@@H]1Oc2nc(-c3cc(N)nc4ccccc34)c(F)c3nc(OC[C@]45CCN4CC(F)(F)C5)nc(c23)N2C[C@H]3CC[C@H](N3)[C@@H]12 [Compound 79, 4-((5S,5aS,6S,9R)-12-(((R)-3,3-Difluoro-1-azabicyclo[3.2.0]heptan-5-yl)methoxy)-1-fluoro-5-methyl-5a,6,7,8,9,10-hexahydro-5H-4-oxa-3,10a,11,13,14-pentaaza-6,9-methanonaphtho[1,8-ab]heptalen-2-yl)quinolin-2-amine]	–	4040 nM	≥ 20000 nM	22.7 nM	–	–
Cc1cc(N)c(Cl)c(-c2nc3c4c(nc(OC[C@@]56CCCN5C[C@H](F)C6)nc4c2Cl)N2C[C@H]4CC[C@H](N4)[C@H]2[C@H](C)O3)c1C(F)(F)F (single isomer, unassigned) [240 (atrop. 2)]	0.14 nM	1.5 nM	–	–	–	–
C#Cc1cccc2cc(O)cc(-c3nc4c5c(nc(OC[C@]67CCN6CC(F)(F)C7)nc5c3F)N3C[C@H]5CC[C@H](N5)[C@H]3[C@H](C)O4)c12 (single isomer, unassigned) [Compound 19]	–	5.05 nM	8800 nM	0.08 nM	217 nM	3.31 nM
Cc1c(F)c(N)cc(-c2nc3c4c(nc(OC[C@]5(CN6CC7(COC7)C6)CC5(F)F)nc4c2F)N2C[C@H]4CC[C@H](N4)[C@H]2[C@H](C)O3)c1C(F)(F)F (single isomer, unassigned) [165 b]	–	–	–	0.1 nM	–	–
C#Cc1c(F)ccc2cc(O)cc(-c3nc4c5c(nc(OC[C@@]67CCCN6C[C@H](F)C7)nc5c3F)N3C[C@H]5CC[C@H](N5)[C@H]3[C@H](C)O4)c12 [Compound 7, 5-Ethynyl-6-fluoro-4-((5S,5aS,6S,9R)-1-fluoro-12-(((2R,7aS)-2-fluorotetrahydro-1H-pyrrolizin-7a(5H)-yl)methoxy)-5-methyl-5a,6,7,8,9,10-hexahydro-5H-4-oxa-3,10a,11,13,14-pentaaza-6,9-methanonaphtho[1,8-ab]heptalen-2-yl)naphthalen-2-ol]	–	1.92 nM	10200 nM	–	130 nM	1.36 nM
Cc1cc(N)nc(-c2nc3c4c(nc(OC[C@@]56CCCN5C[C@H](F)C6)nc4c2F)N2C[C@H]4CC[C@H](N4)[C@H]2[C@H](C)O3)c1C(F)(F)F [Compound 43, 6-((5S,5aS,6S,9R)-1-Fluoro-12-(((2R,7aS)-2-fluorotetrahydro-1H-pyrrolizin-7a(5H)-yl)methoxy)-5-methyl-5a,6,7,8,9,10-hexahydro-5H-4-oxa-3,10a,11,13,14-pentaaza-6,9-methanonaphtho[1,8-ab]heptalen-2-yl)-4-methyl-5-(trifluoromethyl)pyridin-2-amine]	–	43.4 nM	≥ 20000 nM	–	4290 nM	16.8 nM
Cc1cc(N)nc(-c2nc3c4c(nc(OC[C@@]56CCCN5CC5(CC5(F)F)C6)nc4c2F)N2C[C@H]4CC[C@H](N4)[C@H]2[C@H](C)O3)c1C(F)(F)F (stereo partly drawn) [Compound 47, 6-((5S,5aS,6S,9R)-12-(((7a′S)-2,2-difluorodihydro-1′H,3′H-spiro[cyclopropane-1,2′-pyrrolizin]-7a′(5′H)-yl)methoxy)-1-fluoro-5-methyl-5a,6,7,8,9,10-hexahydro-5H-4-oxa-3,10a,11,13,14-pentaaza[6,9]methanonaphtho[1,8-ab]heptalen-2-yl)-4-methyl-5-(trifluoromethyl)pyridin-2-amine]	–	3.97 nM	8840 nM	–	1530 nM	2.95 nM
Cc1c(F)c(N)cc(-c2nc3c4c(nc(OC[C@@]56CCCN5C[C@H](F)C6)nc4c2F)N2C[C@H]4CC[C@H](N4)[C@H]2[C@@H](C(F)(F)F)O3)c1C(F)(F)F [Compound 246, 2-Fluoro-5-((5S,5aS,6S,9R)-1-fluoro-12-(((2R,7aS)-2-fluorotetrahydro-1H-pyrrolizin-7a(5H)-yl)methoxy)-5-(trifluoromethyl)-5a,6,7,8,9,10-hexahydro-5H-4-oxa-3,10a,11,13,14-pentaaza-6,9-methanonaphtho[1,8-ab]heptalene-2-yl)-3-methyl-4-(trifluoromethyl)aniline]	311 nM	–	–	–	20000 nM	2000 nM
Cc1cc(N)c(F)c(-c2nc3c4c(nc(OCC56CCN5CC(F)(F)C6)nc4c2F)N2C[C@H]4CC[C@H](N4)[C@H]2[C@H](C)O3)c1C(F)(F)F (mixture of isomers) [Compound 33, 3-((5S,5aS,6S,9R)-12-((3,3-Difluoro-1-azabicyclo[3.2.0]heptan-5-yl)methoxy)-1-fluoro-5-methyl-5a,6,7,8,9,10-hexahydro-5H-4-oxa-3,10a,11,13,14-pentaaza-6,9-methanonaphtho[1,8-ab]heptalen-2-yl)-2-fluoro-5-methyl-4-(trifluoromethyl)aniline]	–	3.72 nM	3920 nM	–	1850 nM	1.29 nM
Cc1cc(-c2nc3c4c(nc(OC[C@@]56CCCN5C[C@H](F)C6)nc4c2F)N2C[C@H]4CC[C@H](N4)[C@H]2[C@H](C)O3)c(F)c(N)c1F [Compound 18, 2,6-difluoro-3-((5S,5aS,6S,9R)-1-fluoro-12-(((2R,7aS)-2-fluorotetrahydro-1H-pyrrolizin-7a(5H)-yl)methoxy)-5-methyl-5a,6,7,8,9,10-hexahydro-5H-4-oxa-3,10a,11,13,14-pentaaza-6,9-methanonaphtho[1,8-ab]heptalen-2-yl)-5-methylaniline]	–	5590 nM	7910 nM	–	20000 nM	5220 nM
C[C@@H]1Oc2nc(-c3cncc4ccccc34)c(F)c3nc(OC[C@@]45CCCN4CC4(CC4(F)F)C5)nc(c23)N2C[C@H]3CC[C@H](N3)[C@@H]12 (stereo partly drawn) [Compound 30, (5S,5aS,6S,9R)-12-(((7a′S)-2,2-difluorodihydro-1′H,3′H-spiro[cyclopropane-1,2′-pyrrolizin]-7a′(5′H)-yl)methoxy)-1-fluoro-2-(isoquinolin-4-yl)-5-methyl-5a,6,7,8,9,10-hexahydro-5H-4-oxa-3,10a,11,13,14-pentaaza-6,9-methanonaphtho[1,8-ab]heptalene]	–	166 nM	3810 nM	–	2890 nM	154 nM
Cc1c(F)c(N)cc(-c2nc3c4c(nc(OC[C@H]5CC(F)(F)CN5C)nc4c2F)N2C[C@H]4CC[C@H](N4)[C@H]2[C@H](C)O3)c1C(F)(F)F [Compound 66, 5-((5S,5aS,6S,9R)-12-(((R)-4,4-difluoro-1-methylpyrrolidin-2-yl)methoxy)-1-fluoro-5-methyl-5a,6,7,8,9,10-hexahydro-5H-4-oxa-3,10a,11,13,14-pentaaza-6,9-methanonaphtho[1,8-ab]heptalen-2-yl)-2-fluoro-3-methyl-4-(trifluoromethyl)aniline]	–	41.4 nM	4780 nM	–	7150 nM	27.6 nM
Cc1cc(N)c(Cl)c(-c2nc3c4c(nc(OC[C@@]56CCCN5C[C@H](F)C6)nc4c2Cl)N2C[C@H]4CC[C@H](N4)[C@H]2[C@H](C)O3)c1C(F)(F)F (single isomer, unassigned) [240 (atrop. 1)]	44.9 nM	–	–	–	–	–
